# Experimental data from paper PMC9966268, “Genotoxicity of Novel Pyrazolo[4,3-e]tetrazolo[1,5-b][1,2,4]triazine Sulfonamides in Normal and Cancer Cells In Vitro” (International Journal of Molecular Sciences, 2023).
# What was measured:
# PC-3 [1] = experiment: Neutral comet assay; format: cell-based, human; conditions: 24 h
# Experimental: (§1) The majority of the neutral comet assay steps were performed analogously to the alkaline version except for the electrophoresis step. In contrast to the alkaline comet assay, electrophoresis was performed in a buffer comprising 100 mM TRIS and 300 mM sodium acetate with the pH of the solution adjusted to 9.0 by glacial acetic acid, as described previously by Bukowski et al.. Electrophoresis was run at 12 V, 50 mA for 60 min. Cells were washed with distilled water twice, stained with DAPI, and analyzed as described for the alkaline comet assay.
# (§2) […] This parameter provides a very clear picture of what the actual appearance of the comets was like. […] The data were presented with an interquartile range and minimal and maximal values using Graphpad Prism 7. Statistical analysis of comet assay results was performed using Statistica software. The Kruskal–Wallis test was used to show a statistically significant difference between groups. Multiple comparisons using mean ranks for all groups module of Statistica software were used. A p-value less than 0.05 was considered statistically significant. In all groups, N > 200.
# BxPC-3 [2] = experiment: Neutral comet assay; format: cell-based, human; conditions: 24 h
# Experimental: as §1
# CASP: Comet Assay Software Project Lab (http://casplab.com (accessed on 1 January 2023)) was used to establish the median value of DNA (%) in comet tails. This parameter provides a very clear picture of what the actual appearance of the comets was like. […] The data were presented with an interquartile range and minimal and maximal values using Graphpad Prism 7. Statistical analysis of comet assay results was performed using Statistica software. The Kruskal–Wallis test was used to show a statistically significant difference between groups. Multiple comparisons using mean ranks for all groups module of Statistica software were used. A p-value less than 0.05 was considered statistically significant. In all groups, N > 200.
# PC-3 [3] = experiment: Alkaline comet assay; format: cell-based, human; conditions: PC-3, alkaline, 24 h
# Experimental: (§3) The alkaline version of the comet assay was performed according to Singh et al. (1988), with modifications. BxPC-3 and PC-3 cancer cells and normal human fibroblasts (WI-38) were seeded at a density of 1.2 × 10^5/mL onto 12-well plates. […] The experimental design included negative controls (cells treated with DMSO at 0.4% for 24 h at 37 °C). Cells were left for incubation for another 24 h (37 °C; 5% CO2). After exposure, they were transferred to Eppendorf tubes and centrifuged at 1400 rpm for 10 min at 4 °C. Afterward, the supernatant was removed, and the precipitate was diluted in PBS. The next steps were performed as previously described by Kontek and Nowicka.
# (§4) After electrophoresis (conditions: 12 V, 300 mA, 25 min), slides were stained with 1 µg/mL of the intercalating agent 4′,6-diamidino-2-phenylindole (DAPI) and coverslipped. DNA damage was assessed with a fluorescence microscope at 360 nm using CellSens (Olympus) software. A total number of approximately 50 cells per slide was chosen for further analysis.
# as §2
# WI-38 [4] = experiment: Alkaline comet assay; format: cell-based, human; conditions: WI-38, alkaline, 24 h
# Experimental: as §3, §4, §2
# BxPC-3 [5] = experiment: Alkaline comet assay; format: cell-based, human; conditions: BxPC-3, alkaline, 24 h
# Experimental: as §3, §4, §2
# BxPC-3 [6] = tested on: BxPC-3; set-up: method as in PMID 35682571; conditions: BxPC-3, 72 h incubation, MTT assay, mean; read-out: IC50 Value ± SD; cited from earlier work
# PC-3 [7] = experiment: γH2AX staining; format: cell-based, human; conditions: PC-3, IC50 concentration, 24 h, foci per cell
# Experimental: PC-3 cells were seeded at a density of 3 × 10^4/mL onto round coverslips placed on the bottom of 12-well plates. […] After 24 h, cells were washed once with cold PBS and placed in 4% paraformaldehyde (PHA) in PBS for 10 min. at room temperature. After that, PHA was removed, and cells were permeabilized using 0.1% Triton X-100 for 10 min at 20 °C, followed by incubation in a blocking solution (1 mL/well) containing 2.5% BSA, 1.5% goat serum, and 0.1% Triton X-100 in PBS for 10 min at room temperature. The blocking solution was removed, and coverslips containing cells were incubated with anti-γ-H2AX primary antibodies in blocking solution (anti-gamma-H2AX (phosphor-Ser139) (Abcam, Cambridge, UK; 1:100)) for 1 h at room temperature. Cells were transferred into 12-well plates, washed twice in PBS (5 min each), transferred to plates, and incubated with Goat anti-Mouse IgG Cross-adsorbed antibody, Alexa Fluor 488 (Invitrogen; 1:500 in PBS) for 1 h at room temperature. Cells were washed twice in PBS, followed by incubation with DAPI solution (1 µg/mL) for 10 min at room temperature and two washes in PBS and distilled water. Coverslips were removed using tweezers and placed on microscope slides with a drop of Fluoromount-G mounting medium. The slides were placed flat at room temperature for 24 h and then stored at 4 °C. The slides were analyzed with a fluorescence microscope using CellSens (Olympus) software. A total number of approximately 100 cells per slide was chosen for further analysis. The experiment was performed in duplicate. In BxPC-3 cells, inefficient or non-specific staining was observed despite attempts to optimize the assay. Therefore, we discontinued further work on these cells with the assay.
# Images for green γ-H2AX (Alexa Fluor 488) and blue nuclear signals (DAPI) were taken using an Olympus camera. ImageJ software “find maxima” and “count” functions were used to determine the number of γ-H2AX foci in each cell. The “preview point selection” option and “prominence” were chosen based on the accuracy of coverage of γ-H2AX foci. Data were analyzed using GraphPad Prism 7.0 software system (GraphPad Prism Software Inc., USA) and Statistica software. The Kruskal–Wallis test was used to show a statistically significant difference between groups. Multiple comparisons using mean ranks for all groups module of Statistica software were used. A p-value less than 0.05 was considered statistically significant (p < 0.05). In all groups, N > 200.
# WI-38 [8] = tested on: WI-38; set-up: method as in PMID 35682571; conditions: WI-38 (head prints WI-28), 72 h incubation, MTT assay, mean; read-out: IC50 Value ± SD; cited from earlier work
# PC-3 [9] = tested on: PC-3; set-up: method as in PMID 35682571; conditions: PC-3, 72 h incubation, MTT assay, mean; read-out: IC50 Value ± SD; cited from earlier work
# Alamar blue assay = format: cell-based; conditions: human
# Experimental: Alamar blue works as a non-toxic and membrane-permeable redox indicator that is often used to assess the metabolic activity of cells. Over the past 50 years, the alamar blue reagent has been used to measure cell viability and cytotoxicity in a variety of cell types. In this study, alamar blue (BioRAD) was used to assess cell viability before the performance of the neutral comet assay. Nunc microtiter, flat-bottomed 96-well plates were seeded at a density of approximately 1 × 10^4 cells per 100 µL medium per well. Following the given incubation period in controlled conditions (37 °C; 5% CO2), cells were exposed to 11 different concentrations of tested compounds in DMSO (range 0.05–3 µM) in a volume of 100 µL medium per well. The final solvent concentration was <0.5% v/v. The experimental design included negative controls and blanks (wells without cells).
# Following a 24 h incubation period, 20 µL of alamar blue was added to each well of the experimental plate. Cells were incubated in a humidified atmosphere for 4 h (37 °C; 5% CO2). The absorbance reading was performed at 570 and 600 nm using a spectrophotometer (microplate reader Power Wave XS BioTek Instruments, Inc., USA). The experiments were performed in triplicate.
# The percentage difference between treated and control cells was calculated using the formula provided by the producer (BioRad). (1) Percentage difference between treated and control cells=O2×A1 −O1×A2 /O2×P1−O1×P2×100
# [10] = tested on: BxPC-3 and PC-3 cancer cell lines; set-up: method as in PMID 35682571; conditions: BxPC-3 and PC-3, 72 h MTT assay; read-out: IC50 (range over cancer cell lines); cited from earlier work
# [11] = PC-3, neutral, positive control 20 µM
# [12] = BxPC-3, neutral, positive control 20 µM
compound,measurement,setting,value
Cc1nn(-c2ccc(S(=O)(=O)N3CCOCC3)cc2)c2nn3nnnc3nc12 [MM136],mean tail DNA % (double-strand breaks),PC-3 [1]; human,8%
same,median tail DNA % (double-strand breaks),PC-3 [1]; human,4.6%
same,mean tail DNA % (double-strand breaks),BxPC-3 [2]; human,5.08%
same,median tail DNA % (double-strand breaks),BxPC-3 [2]; human,4.10%
same,mean tail DNA %,PC-3 [3]; IC50 concentration,12.08%
same,median tail DNA %,PC-3 [3]; IC50 concentration,1.63%
same,mean tail DNA %,WI-38 [4]; IC50 concentration,0.72%
same,median tail DNA %,WI-38 [4]; IC50 concentration,0.01%
same,mean tail DNA %,BxPC-3 [5]; IC50 concentration,14.36%
same,median tail DNA %,BxPC-3 [5]; IC50 concentration,8.28%
same,IC50,BxPC-3 [6],250 ± 80 nM
same,mean number of γH2AX foci,PC-3 [7],14.71
same,median number of γH2AX foci,PC-3 [7],11
same,IC50,WI-38 [8],480 ± 90 nM
same,IC50,PC-3 [9],130 ± 10 nM
Cc1nn(-c2ccc(S(=O)(=O)N3CCN(C)CC3)cc2)c2nn3nnnc3nc12 [MM137],mean tail DNA % (double-strand breaks),PC-3 [1]; human,4.45%
same,median tail DNA % (double-strand breaks),PC-3 [1]; human,2.82%
same,mean tail DNA %,PC-3 [3]; IC50 concentration,11.05%
same,median tail DNA %,PC-3 [3]; IC50 concentration,2.32%
same,mean tail DNA %,WI-38 [4]; IC50 concentration,1.26%
same,median tail DNA %,WI-38 [4]; IC50 concentration,0.09%
same,mean tail DNA %,BxPC-3 [5]; IC50 concentration,12.07%
same,median tail DNA %,BxPC-3 [5]; IC50 concentration,3.28%
same,IC50,BxPC-3 [6],160 ± 40 nM
same,mean number of γH2AX foci,PC-3 [7],17.52
same,median number of γH2AX foci,PC-3 [7],15
same,IC50,WI-38 [8],270 ± 40 nM
same,IC50,PC-3 [9],110 ± 7 nM
Cc1nn(-c2ccc(S(=O)(=O)N3CCCCC3)cc2)c2nn3nnnc3nc12 [MM139],mean tail DNA % (double-strand breaks),PC-3 [1]; human,6.07%
same,median tail DNA % (double-strand breaks),PC-3 [1]; human,5%
same,mean tail DNA % (double-strand breaks),BxPC-3 [2]; human,4.86%
same,median tail DNA % (double-strand breaks),BxPC-3 [2]; human,3.72%
same,mean tail DNA %,PC-3 [3]; IC50 concentration,14.22%
same,median tail DNA %,PC-3 [3]; IC50 concentration,3.35%
same,mean tail DNA %,WI-38 [4]; IC50 concentration,2.97%
same,median tail DNA %,WI-38 [4]; IC50 concentration,0.085%
same,mean tail DNA %,BxPC-3 [5]; IC50 concentration,10.85%
same,median tail DNA %,BxPC-3 [5]; IC50 concentration,4.74%
same,"viability at 24 h, 3 µM","Alamar blue assay; BxPC-3 cells, BxPC-3, 3 µM",75.3 ± 0.99%
same,"viability at 24 h, 3 µM","Alamar blue assay; PC-3 cells, PC-3, 3 µM",88.4 ± 1.72%
same,IC50,BxPC-3 [6],330 ± 140 nM
same,mean number of γH2AX foci,PC-3 [7],15.37
same,median number of γH2AX foci,PC-3 [7],12
same,IC50,WI-38 [8],540 nM
same,IC50,[10],170 to 330 nM
same,IC50,PC-3 [9],170 ± 3 nM
bleomycin [reference compound],mean tail DNA % (double-strand breaks),PC-3 [1]; [11],12.9%
same,median tail DNA % (double-strand breaks),PC-3 [1]; [11],10.4%
same,mean tail DNA % (double-strand breaks),BxPC-3 [2]; [12],11.15%
same,median tail DNA % (double-strand breaks),BxPC-3 [2]; [12],9.7%
same,mean tail DNA %,PC-3 [3]; positive control 20 µM,22.07%
same,median tail DNA %,PC-3 [3]; positive control 20 µM,19.31%
same,mean tail DNA %,WI-38 [4]; positive control 20 µM,32.6%
same,median tail DNA %,WI-38 [4]; positive control 20 µM,29.13%
same,mean tail DNA %,BxPC-3 [5]; positive control 20 µM,48.3%
same,median tail DNA %,BxPC-3 [5]; positive control 20 µM,50.8%
